We go through twelve molecules from ChEMBL document CHEMBL3046091, “Synthesis and antimicrobial activities of 2-azetidinyl-4-quinazolinone derivatives of diclofenac analogue” (2011).

Common to all, as to assay type: functional
The test system of test [1] is Pseudomonas aeruginosa. The test is described as follows: Antibacterial activity against Pseudomonas aeruginosa ATCC 9027 at 50 ug/ml by cup-plate method. As to conditions: read-out: IZ.
Test [2] relates to Pseudomonas aeruginosa. The test is described as follows: Antibacterial activity against Pseudomonas aeruginosa ATCC 9027 at 50 to 100 ug/ml by cup-plate method.
Test [3] concerns Pseudomonas aeruginosa. The test is described as follows: Antibacterial activity against Pseudomonas aeruginosa ATCC 9027 at 100 ug/ml by cup-plate method. As to conditions: read-out: IZ.
In test [4] the test system is Bacillus subtilis. Put plainly: Antibacterial activity against Bacillus subtilis ATCC 6633 at 50 ug/ml by cup-plate method. As to conditions: read-out: IZ.
Test [5] deals with Bacillus subtilis. Put plainly: Antibacterial activity against Bacillus subtilis ATCC 6633 at 50 to 100 ug/ml by cup-plate method.
The test system of test [6] is Bacillus subtilis. The test is described as follows: Antibacterial activity against Bacillus subtilis ATCC 6633 at 100 ug/ml by cup-plate method. As to conditions: read-out: IZ.
Test [7] deals with Staphylococcus aureus. The test is described as follows: Antibacterial activity against Staphylococcus aureus ATCC 9144 at 50 to 100 ug/ml by cup-plate method.
For test [8], the system named is Staphylococcus aureus. The test is described as follows: Antibacterial activity against Staphylococcus aureus ATCC 9144 at 50 ug/ml by cup-plate method. As to conditions: read-out: IZ.
Test [9] relates to Staphylococcus aureus. Put plainly: Antibacterial activity against Staphylococcus aureus ATCC 9144 at 100 ug/ml by cup-plate method. As to conditions: read-out: IZ.
Test [10] deals with Candida albicans. Put plainly: Antifungal activity against Candida albicans ATCC 10231 at 100 ug/ml by cup-plate method. As to conditions: read-out: IZ.
The subject of test [11] is Candida albicans. Put plainly: Antifungal activity against Candida albicans ATCC 10231 at 50 ug/ml by cup-plate method. Conditions: read-out: IZ.
Test [12] deals with Escherichia coli. The test is described as follows: Antibacterial activity against Escherichia coli ATCC 25922 at 50 ug/ml by cup-plate method. As to conditions: read-out: IZ.
Test [13] deals with Escherichia coli. The test is described as follows: Antibacterial activity against Escherichia coli ATCC 25922 at 50 to 100 ug/ml by cup-plate method.
The test system of test [14] is Escherichia coli. Put plainly: Antibacterial activity against Escherichia coli ATCC 25922 at 100 ug/ml by cup-plate method. As to conditions: read-out: IZ.

As to `O=C1C(Cl)C(c2cccc([N+](=O)[O-])c2)N1c1ccc(-n2c(Cc3ccccc3Nc3c(Cl)cccc3Cl)nc3ccc(Br)cc3c2=O)cc1` (stereo not given), the zone of inhibition at 50 µg/mL in the test with Pseudomonas aeruginosa [1] worked out at 2 mm; with Bacillus subtilis [4] it was 2 mm; with Staphylococcus aureus [8], 1 mm; in the test on Candida albicans [11], 1 mm; in the test on Escherichia coli [12], 2 mm. Also, the Activity with Pseudomonas aeruginosa [2] amounted to 36.75%; in the test on Bacillus subtilis [5], 32.65%; with Staphylococcus aureus [7] it was 29.73%; in the test on Escherichia coli [13], 32.65%. Besides, the zone of inhibition at 100 µg/mL in the test with Pseudomonas aeruginosa [3] was 4 mm; in the test with Bacillus subtilis [6] it was 4 mm; in the test with Staphylococcus aureus [9], 3 mm; in the test with Candida albicans [10] it was 2 mm; with Escherichia coli [14], 4 mm.
Turning to `CCN(CC)c1ccc(C2C(Cl)C(=O)N2c2ccc(-n3c(Cc4ccccc4Nc4c(Cl)cccc4Cl)nc4ccc(Br)cc4c3=O)cc2)c(O)c1` (stereo not given), the zone of inhibition at 50 µg/mL with Pseudomonas aeruginosa [1], in the test with Bacillus subtilis [4], with Staphylococcus aureus [8], in the test with Candida albicans [11] and in the test on Escherichia coli [12] was 0 mm throughout. In addition, the Activity in the test on Pseudomonas aeruginosa [2], with Bacillus subtilis [5], in the test on Staphylococcus aureus [7] and with Escherichia coli [13] was 0% each time. The zone of inhibition at 100 µg/mL with Pseudomonas aeruginosa [3], in the test on Bacillus subtilis [6], in the test with Staphylococcus aureus [9], with Candida albicans [10] and with Escherichia coli [14] was 0 mm in each case.
Regarding `O=C1C(Cl)C(c2ccccc2O)N1c1ccc(-n2c(Cc3ccccc3Nc3c(Cl)cccc3Cl)nc3ccc(Br)cc3c2=O)cc1` (stereo not given), the zone of inhibition at 50 µg/mL with Pseudomonas aeruginosa [1] was determined as 4 mm; in the test on Bacillus subtilis [4], 3 mm; with Staphylococcus aureus [8] it was 3 mm; with Candida albicans [11] it was 0 mm; with Escherichia coli [12], 3 mm. In addition, the Activity with Pseudomonas aeruginosa [2] is given as 50%; with Bacillus subtilis [5], 42.68%; in the test on Staphylococcus aureus [7] it was 50.98%; with Escherichia coli [13], 43.53%. Moreover, the zone of inhibition at 100 µg/mL turned out to be 6 mm in the test with Pseudomonas aeruginosa [3]; 6 mm in the test on Bacillus subtilis [6]; 6 mm with Staphylococcus aureus [9]; 0 mm with Candida albicans [10]; 6 mm with Escherichia coli [14].
As for `O=C1C(Cl)C(c2ccc(O)cc2)N1c1ccc(-n2c(Cc3ccccc3Nc3c(Cl)cccc3Cl)nc3ccc(Br)cc3c2=O)cc1` (stereo not given), the zone of inhibition at 50 µg/mL in the test with Pseudomonas aeruginosa [1] came out at 4 mm; in the test on Bacillus subtilis [4] it was 3 mm; in the test with Staphylococcus aureus [8] it was 3 mm; in the test with Candida albicans [11], 0 mm; with Escherichia coli [12], 2 mm. Moreover, the Activity is reported as 58.33% in the test with Pseudomonas aeruginosa [2], 35.08% in the test on Bacillus subtilis [5], 44.44% in the test on Staphylococcus aureus [7] and 37.89% in the test on Escherichia coli [13]. For the same molecule, the zone of inhibition at 100 µg/mL worked out at 7 mm with Pseudomonas aeruginosa [3]; 5 mm in the test with Bacillus subtilis [6]; 5 mm in the test on Staphylococcus aureus [9]; 0 mm in the test on Candida albicans [10]; 5 mm in the test on Escherichia coli [14].
For `O=C1C(Cl)C(c2ccccc2Cl)N1c1ccc(-n2c(Cc3ccccc3Nc3c(Cl)cccc3Cl)nc3ccc(Br)cc3c2=O)cc1` (stereo not given), the zone of inhibition at 50 µg/mL with Pseudomonas aeruginosa [1] stood at 4 mm; with Bacillus subtilis [4], 3 mm; in the test on Staphylococcus aureus [8], 4 mm; in the test on Candida albicans [11], 2 mm; in the test on Escherichia coli [12], 3 mm. In addition, the Activity in the test with Pseudomonas aeruginosa [2] turned out to be 58.33%; with Bacillus subtilis [5], 41.48%; with Staphylococcus aureus [7], 65.76%; in the test on Escherichia coli [13], 44.56%. Further, the zone of inhibition at 100 µg/mL in the test with Pseudomonas aeruginosa [3] was found to be 7 mm; with Bacillus subtilis [6] it was 6 mm; in the test with Staphylococcus aureus [9], 8 mm; in the test on Candida albicans [10], 3 mm; in the test on Escherichia coli [14], 6 mm.
Take `O=C1C(Cl)C(c2ccc(Cl)cc2)N1c1ccc(-n2c(Cc3ccccc3Nc3c(Cl)cccc3Cl)nc3ccc(Br)cc3c2=O)cc1` (stereo not given): the zone of inhibition at 50 µg/mL was determined as 5 mm in the test with Pseudomonas aeruginosa [1]; 5 mm in the test with Bacillus subtilis [4]; 5 mm with Staphylococcus aureus [8]; 2 mm in the test on Candida albicans [11]; 3 mm in the test with Escherichia coli [12]. The Activity with Pseudomonas aeruginosa [2] turned out to be 61.79%; in the test with Bacillus subtilis [5], 57.44%; in the test with Staphylococcus aureus [7] it was 66.67%; with Escherichia coli [13], 51.09%. Further, the zone of inhibition at 100 µg/mL came to 8 mm in the test on Pseudomonas aeruginosa [3]; 8 mm in the test with Bacillus subtilis [6]; 8 mm in the test on Staphylococcus aureus [9]; 5 mm in the test with Candida albicans [10]; 7 mm with Escherichia coli [14].
For `COc1ccc(C2C(Cl)C(=O)N2c2ccc(-n3c(Cc4ccccc4Nc4c(Cl)cccc4Cl)nc4ccc(Br)cc4c3=O)cc2)cc1` (stereo not given), the zone of inhibition at 50 µg/mL in the test with Pseudomonas aeruginosa [1] turned out to be 4 mm; in the test on Bacillus subtilis [4], 4 mm; with Staphylococcus aureus [8], 4 mm; in the test on Candida albicans [11], 2 mm; with Escherichia coli [12], 4 mm. Further, the Activity was 65.76% in the test with Pseudomonas aeruginosa [2], 57.14% in the test with Bacillus subtilis [5], 60.94% in the test with Staphylococcus aureus [7] and 53.33% with Escherichia coli [13]. In addition, the zone of inhibition at 100 µg/mL with Pseudomonas aeruginosa [3] was determined as 8 mm; with Bacillus subtilis [6] it was 8 mm; in the test on Staphylococcus aureus [9], 8 mm; with Candida albicans [10], 4 mm; in the test on Escherichia coli [14], 8 mm.
Turning to `COc1cc(C2C(Cl)C(=O)N2c2ccc(-n3c(Cc4ccccc4Nc4c(Cl)cccc4Cl)nc4ccc(Br)cc4c3=O)cc2)cc(OC)c1OC` (stereo not given), the zone of inhibition at 50 µg/mL with Pseudomonas aeruginosa [1] stood at 4 mm; in the test with Bacillus subtilis [4], 5 mm; in the test with Staphylococcus aureus [8], 4 mm; with Candida albicans [11], 1 mm; in the test with Escherichia coli [12], 3 mm. For the same molecule, the Activity with Pseudomonas aeruginosa [2] is recorded as 58.33%; in the test on Bacillus subtilis [5], 46.48%; in the test on Staphylococcus aureus [7] it was 58.33%; in the test on Escherichia coli [13] it was 50%. Further, the zone of inhibition at 100 µg/mL in the test with Pseudomonas aeruginosa [3] was found to be 7 mm; with Bacillus subtilis [6], 7 mm; in the test on Staphylococcus aureus [9] it was 7 mm; in the test on Candida albicans [10], 2 mm; with Escherichia coli [14] it was 7 mm.
On to `COc1ccc(C2C(Cl)C(=O)N2c2ccc(-n3c(Cc4ccccc4Nc4c(Cl)cccc4Cl)nc4ccc(Br)cc4c3=O)cc2)c(O)c1` (stereo not given), for which the zone of inhibition at 50 µg/mL in the test on Pseudomonas aeruginosa [1] turned out to be 3 mm; in the test with Bacillus subtilis [4], 4 mm; in the test on Staphylococcus aureus [8] it was 4 mm; with Candida albicans [11] it was 0 mm; in the test with Escherichia coli [12] it was 4 mm. Further, the Activity in the test with Pseudomonas aeruginosa [2] came to 50.98%; in the test with Bacillus subtilis [5], 44.69%; with Staphylococcus aureus [7], 58.33%; in the test with Escherichia coli [13], 50%. For the same molecule, the zone of inhibition at 100 µg/mL in the test on Pseudomonas aeruginosa [3] was 6 mm; in the test on Bacillus subtilis [6], 7 mm; in the test on Staphylococcus aureus [9], 7 mm; in the test with Candida albicans [10], 1 mm; in the test on Escherichia coli [14], 7 mm.
With `CN(C)c1ccc(C2C(Cl)C(=O)N2c2ccc(-n3c(Cc4ccccc4Nc4c(Cl)cccc4Cl)nc4ccc(Br)cc4c3=O)cc2)cc1` (stereo not given), the zone of inhibition at 50 µg/mL with Pseudomonas aeruginosa [1], with Bacillus subtilis [4], in the test with Staphylococcus aureus [8], in the test with Candida albicans [11] and in the test with Escherichia coli [12] was 0 mm each time. Moreover, the Activity in the test on Pseudomonas aeruginosa [2], in the test with Bacillus subtilis [5], in the test with Staphylococcus aureus [7] and with Escherichia coli [13] was 0% throughout. The zone of inhibition at 100 µg/mL with Pseudomonas aeruginosa [3] is 0 mm; with Bacillus subtilis [6] it was 0 mm; with Staphylococcus aureus [9], 0 mm; in the test on Candida albicans [10], 1 mm; in the test with Escherichia coli [14], 0 mm.
With `C[C@@H]1[C@H](O)[C@@H](C)/C=C/C=C/C=C/C=C/C=C/C=C/C=C/[C@H](O[C@@H]2O[C@H](C)[C@@H](O)[C@H](N)[C@@H]2O)C[C@@H]2O[C@](O)(C[C@@H](O)C[C@@H](O)[C@H](O)CC[C@@H](O)C[C@@H](O)CC(=O)O[C@H]1C)C[C@H](O)[C@H]2C(=O)O` [AMPHOTERICIN B], in the test on Candida albicans [10], the zone of inhibition at 100 µg/mL came out at 9 mm. For the same molecule, the zone of inhibition at 50 µg/mL in the test on Candida albicans [11] was 4 mm.
As for `CC1(C)S[C@@H]2[C@H](NC(=O)Cc3ccccc3)C(=O)N2[C@H]1C(=O)O` [PENICILLIN G], the zone of inhibition at 50 µg/mL worked out at 6 mm in the test on Pseudomonas aeruginosa [1], 7 mm in the test with Bacillus subtilis [4], 6 mm in the test with Staphylococcus aureus [8] and 7 mm with Escherichia coli [12]. The zone of inhibition at 100 µg/mL came out at 12 mm in the test with Pseudomonas aeruginosa [3], 14 mm with Bacillus subtilis [6], 12 mm in the test on Staphylococcus aureus [9] and 14 mm in the test on Escherichia coli [14].
